Key:
[1] = target: T1, L-phenylalanine dehydrogenase produced by Bacillus sp. SCRC-R79a (Lysinibacillus sphaericus, UniProt P23307); settings: pH 9.0; phenylpyruvate to L-phenylalanine as 100%
T1 sequence (P23307 1-381): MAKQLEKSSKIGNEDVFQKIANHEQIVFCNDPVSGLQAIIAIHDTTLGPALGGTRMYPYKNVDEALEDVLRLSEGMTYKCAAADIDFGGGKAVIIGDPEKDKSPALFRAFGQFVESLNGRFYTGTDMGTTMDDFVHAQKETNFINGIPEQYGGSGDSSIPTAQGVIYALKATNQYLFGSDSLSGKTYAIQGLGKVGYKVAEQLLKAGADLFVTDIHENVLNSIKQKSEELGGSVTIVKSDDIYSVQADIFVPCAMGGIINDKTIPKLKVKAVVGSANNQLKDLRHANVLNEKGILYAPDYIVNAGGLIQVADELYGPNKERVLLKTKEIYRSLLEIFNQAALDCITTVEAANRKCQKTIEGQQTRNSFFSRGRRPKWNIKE

[2] = target: T1, L-phenylalanine dehydrogenase produced by Bacillus sp. SCRC-R79a; assay: Substrate and coenzyme specificity, oxidative deamination (Bacillus enzyme); assay type: biochemical; parameters: inoculated with Bacillus sp; endogenous in cells; host or cells: Bacillus sp; enzyme purified in house; settings: oxidative deamination
Experimental: The substrate concentration is 10 mM except for the L-tyrosine concentration which is 1.4 mM.

[3] = target: T2, L-phenylalanine dehydrogenase produced by Sporosarcina ureae SCRC-R04 (Sporosarcina ureae, UniProt P97014); assay: Substrate and coenzyme specificity, oxidative deamination (Sporosarcina enzyme); assay type: biochemical; settings: oxidative deamination
T2 sequence (P97014 1-379): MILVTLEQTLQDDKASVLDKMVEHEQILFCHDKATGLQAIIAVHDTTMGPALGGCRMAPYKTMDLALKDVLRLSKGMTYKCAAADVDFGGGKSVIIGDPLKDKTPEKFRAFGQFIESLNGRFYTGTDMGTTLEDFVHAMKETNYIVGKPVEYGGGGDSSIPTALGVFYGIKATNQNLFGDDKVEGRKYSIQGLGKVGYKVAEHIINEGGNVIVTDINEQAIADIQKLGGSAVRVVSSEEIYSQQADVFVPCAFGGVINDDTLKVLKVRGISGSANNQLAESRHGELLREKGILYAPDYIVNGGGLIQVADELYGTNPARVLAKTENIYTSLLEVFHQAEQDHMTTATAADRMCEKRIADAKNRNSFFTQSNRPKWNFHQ
Experimental: The substrate concentration is 10 mM, except for the L-tyrosine concentration which is 1.4 mM.

[4] = substrate concentration 10 mM, L-phenylalanine = 100, read-out: Relative activity (%)

Row | relative rate of converting the α-keto acid to the L-amino acid [1] [%] | SMILES | action of the enzyme on the amino acid as substrate (in words) [2] | activity at 10000 µM [2, 4] [%] | action of the enzyme on the amino acid as substrate (in words) [3] | activity at 10000 µM [3, 4] [%]
1 | 100 | O=C(O)C(=O)Cc1ccccc1 [phenylpyruvate] |  |  |  | 
2 |  | N[C@@H](Cc1ccccc1)C(=O)O [L--Phenylalanine, L-phenylalanine] | acting strongly | 100 | acting strongly | 100
